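Five compound concentrations were applied to cells in 96-well plates for 48 hours; endpoints were derived by simple linear interpolation of the resulting dose-response curve. GI50 is the concentration that inhibits growth by half. TGI marks complete inhibition of growth.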 A value given as a limit tells only on which side of the number the result lay.

Among the test systems are DLD-1 colon; DMS 114 small cell lung; DMS 273 small cell lung; HCC-2998 colon; HOP-92 NSCLC; KM12 colon; KM20L2 colon; OVCAR-8 ovarian; SK-MEL-5 melanoma; U251 CNS.
Holding throughout (experiment): NCI-60 cell line screen, 48 h

As for `CC1(Cl)C(=O)NC(=O)N(C2CC(N=[N+]=[N-])C(CO)O2)C1N=[N+]=[N-]` (stereo not given), the TGI with DLD-1 colon, in the assay with DMS 114 small cell lung, with DMS 273 small cell lung, in the assay on HCC-2998 colon, with HOP-92 NSCLC and in the assay with KM12 colon was above 100 µM in each case. For the same molecule, the TGI in the assay on KM20L2 colon, in the assay with OVCAR-8 ovarian, with SK-MEL-5 melanoma and in the assay on U251 CNS was above 100 µM in each case.

Turning to `CC(=O)Nc1ccccc1Sc1ccccc1`, the TGI with DMS 114 small cell lung, in the assay on DMS 273 small cell lung, in the assay with HCC-2998 colon, with HOP-92 NSCLC, in the assay on KM12 colon and in the assay with KM20L2 colon was above 100 µM in each case. The TGI in the assay on OVCAR-8 ovarian, with SK-MEL-5 melanoma and in the assay on U251 CNS was above 100 µM in each case.

Regarding `Cc1cc2c(cc1C)[n+](=O)c(C(=O)CC(=O)C(=O)Nc1c(C(C)C)cccc1C(C)C)c(C)n2[O-]`, the TGI with DMS 114 small cell lung, with DMS 273 small cell lung, in the assay with HCC-2998 colon, in the assay with HOP-92 NSCLC, in the assay with KM12 colon and in the assay on KM20L2 colon was above 100 µM throughout. Further, the TGI with OVCAR-8 ovarian, in the assay on SK-MEL-5 melanoma and with U251 CNS was above 100 µM each time.

In the case of `N#CC(C(=N/O)/C(=N/O)C(C#N)c1ccc(Cl)cc1)c1ccc(Cl)cc1` (stereo not given), the TGI with DLD-1 colon, with DMS 114 small cell lung, in the assay with DMS 273 small cell lung, with HCC-2998 colon, with HOP-92 NSCLC and in the assay on KM12 colon was above 100 µM each time. Further, the TGI in the assay with KM20L2 colon, in the assay on OVCAR-8 ovarian and in the assay with U251 CNS was above 100 µM in each case.

Turning to `N#C/C(=C/c1ccsc1)C(=O)c1ccccc1`, the TGI in the assay on DLD-1 colon, in the assay on DMS 114 small cell lung, with DMS 273 small cell lung, with HCC-2998 colon, in the assay on HOP-92 NSCLC and with KM12 colon was above 100 µM in each case. Also, the TGI in the assay on KM20L2 colon, with OVCAR-8 ovarian, in the assay on SK-MEL-5 melanoma and in the assay on U251 CNS was above 100 µM in each case.

For the molecule `CN(C)CCC(=O)N1C/C(=C/c2ccccc2)C(=O)/C(=C\c2ccccc2)C1`, the TGI with DLD-1 colon was 3.25 µM; in the assay on DMS 114 small cell lung it was 4.1 µM; in the assay on DMS 273 small cell lung, 3.26 µM; in the assay on HCC-2998 colon, 2.45 µM; in the assay on HOP-92 NSCLC, 16.6 µM; in the assay with KM12 colon, 1.73 µM. Moreover, the TGI in the assay with KM20L2 colon worked out at 2.89 µM; in the assay on OVCAR-8 ovarian, 7.58 µM; in the assay with SK-MEL-5 melanoma it was 3.9 µM; in the assay with U251 CNS, 2 µM.

Consider `O=C1OCc2c1cc1ccc(O)c(OC3OC(CO)C(O)C(O)C3O)c1c2-c1ccc2c(c1)OCO2` (stereo not given), for which the TGI in the assay with DMS 114 small cell lung, in the assay on DMS 273 small cell lung, in the assay with HCC-2998 colon, with KM12 colon, in the assay on KM20L2 colon and in the assay with OVCAR-8 ovarian was above 100 µM throughout. Moreover, the TGI is 74.9 µM in the assay on SK-MEL-5 melanoma and above 100 µM with U251 CNS. Also, the GI50 in the assay with HCC-2998 colon was 38.2 µM; in the assay on KM12 colon it was 23.4 µM; in the assay with SK-MEL-5 melanoma it was 26.2 µM.

Take `COc1ccccc1C1C(C(=O)Nc2ccccc2)=C(C)NC(C)=C1C(=O)Nc1ccccc1`: the TGI in the assay on DMS 114 small cell lung, with DMS 273 small cell lung, in the assay on HCC-2998 colon, in the assay with HOP-92 NSCLC, in the assay on KM12 colon and in the assay with KM20L2 colon was above 100 µM each time. For the same molecule, the TGI in the assay on OVCAR-8 ovarian, in the assay with SK-MEL-5 melanoma and with U251 CNS was above 100 µM in each case.

As to `COC(=O)C1=C(C(=O)OC)C2C=CC1C1C(Cl)=C(Cl)C21` (stereo not given), the TGI with DLD-1 colon, with DMS 114 small cell lung, with DMS 273 small cell lung, in the assay on HCC-2998 colon, in the assay with HOP-92 NSCLC and in the assay on KM12 colon was above 100 µM each time. The TGI in the assay on KM20L2 colon, in the assay with OVCAR-8 ovarian, in the assay on SK-MEL-5 melanoma and with U251 CNS was above 100 µM each time.

`COc1ccc(CNc2cc(OC)c(OC)c(OC)c2)cc1`: the TGI in the assay on DLD-1 colon was above 100 µM; in the assay with DMS 114 small cell lung, 9.19 µM; in the assay on DMS 273 small cell lung, above 100 µM; in the assay on HCC-2998 colon, 32.3 µM; with HOP-92 NSCLC it was above 100 µM; with KM12 colon, above 41.7 µM. The TGI with KM20L2 colon is above 23.7 µM; with OVCAR-8 ovarian it was above 100 µM; in the assay on SK-MEL-5 melanoma, 14.6 µM; with U251 CNS, 24.3 µM.

Consider `COc1ccc2cc1Oc1ccc(cc1)CC1c3cc(c(OC)cc3CCN1C)Oc1c3c(cc4c1C(C2)N(C)CC4)OCO3` (stereo not given), for which the TGI turned out to be 31.5 µM in the assay on DLD-1 colon; 17.5 µM in the assay on DMS 114 small cell lung; 17.2 µM with DMS 273 small cell lung; 24.2 µM in the assay with HCC-2998 colon; 27.2 µM in the assay with KM12 colon; 6.18 µM with KM20L2 colon. The TGI stood at 21.1 µM in the assay on OVCAR-8 ovarian, 25.1 µM in the assay with SK-MEL-5 melanoma and 17.3 µM in the assay on U251 CNS.

On to `COc1ccc(OC)c(NC(=O)C(=O)C(C(C)=O)c2nc3ccc(Cl)cc3[nH]c2=O)c1` (stereo not given), for which the TGI in the assay on DLD-1 colon, in the assay with DMS 114 small cell lung, in the assay on DMS 273 small cell lung, with HCC-2998 colon, with HOP-92 NSCLC and with KM12 colon was above 50 µM in each case. Also, the TGI in the assay with KM20L2 colon, in the assay with OVCAR-8 ovarian, in the assay with SK-MEL-5 melanoma and in the assay with U251 CNS was above 50 µM throughout.

In the case of `OCc1ccc2[n+](c1)CCC1c3ccccc3NC21` (stereo not given), the TGI with DLD-1 colon, with DMS 114 small cell lung, in the assay on DMS 273 small cell lung, in the assay on HCC-2998 colon, in the assay on HOP-92 NSCLC and with KM12 colon was above 300 µM in each case. Also, the TGI in the assay with KM20L2 colon, in the assay with OVCAR-8 ovarian, in the assay with SK-MEL-5 melanoma and in the assay with U251 CNS was above 300 µM in each case.

For the molecule `Clc1ccc(C2N3CCCCC3[C@@H]3c4[nH]c5ccccc5c4CCN23)cc1` (stereo not given in full), the TGI was above 100 µM in the assay with DLD-1 colon; above 100 µM in the assay on DMS 114 small cell lung; above 100 µM with DMS 273 small cell lung; above 100 µM with HCC-2998 colon; above 100 µM in the assay on HOP-92 NSCLC; 96.5 µM in the assay on KM20L2 colon. The TGI with OVCAR-8 ovarian, in the assay on SK-MEL-5 melanoma and in the assay on U251 CNS was above 100 µM throughout.

Values taken from PubChem BioAssay (NCI).
